{"source": "patent US8436031B2", "about": "(priority 2004, dated 2013)", "key": {"SoxS": {"biological_target": "SoxS (Escherichia coli, UniProt P0A9E2)", "sequence (P0A9E2 whole entry)": "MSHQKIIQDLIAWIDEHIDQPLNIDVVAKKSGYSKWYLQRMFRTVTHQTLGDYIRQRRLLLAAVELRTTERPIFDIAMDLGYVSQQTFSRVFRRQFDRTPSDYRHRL", "test": "Chemiluminescence DNA binding assay, SoxS", "set-up": "species or system E. coli", "conditions": "E. coli SoxS; DNA binding"}, "Rma": {"biological_target": "Rma (Salmonella typhimurium, UniProt H9L484)", "sequence (H9L484 whole entry)": "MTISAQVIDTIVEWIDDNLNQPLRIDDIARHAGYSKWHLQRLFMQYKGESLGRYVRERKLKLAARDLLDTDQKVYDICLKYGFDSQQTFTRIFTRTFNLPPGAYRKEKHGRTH", "test": "Chemiluminescence DNA binding assay, Rma", "set-up": "species or system S. typhimurium"}, "Rob": {"biological_target": "Rob (Escherichia coli, UniProt P0ACI0)", "sequence (P0ACI0 whole entry)": "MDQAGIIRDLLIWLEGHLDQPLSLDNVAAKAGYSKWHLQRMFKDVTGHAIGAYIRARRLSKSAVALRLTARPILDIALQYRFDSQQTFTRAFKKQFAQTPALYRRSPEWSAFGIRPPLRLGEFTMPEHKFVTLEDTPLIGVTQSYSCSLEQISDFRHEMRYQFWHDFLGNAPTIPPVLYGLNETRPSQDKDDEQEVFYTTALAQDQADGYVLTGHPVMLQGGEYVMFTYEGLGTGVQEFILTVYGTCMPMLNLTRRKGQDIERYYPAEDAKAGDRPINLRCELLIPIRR", "test": "Chemiluminescence DNA binding assay, Rob", "conditions": "E. coli Rob"}, "ExsA": {"biological_target": "ExsA (Pseudomonas aeruginosa, UniProt P26993)", "sequence (P26993 whole entry)": "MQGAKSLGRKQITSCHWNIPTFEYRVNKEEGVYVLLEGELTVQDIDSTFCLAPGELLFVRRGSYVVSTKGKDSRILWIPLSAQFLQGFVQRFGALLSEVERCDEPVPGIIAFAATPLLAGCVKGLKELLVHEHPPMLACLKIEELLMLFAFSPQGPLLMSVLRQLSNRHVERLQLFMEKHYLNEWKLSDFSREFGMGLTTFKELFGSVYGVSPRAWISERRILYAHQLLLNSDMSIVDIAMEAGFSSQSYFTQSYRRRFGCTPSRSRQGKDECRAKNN", "test": "Chemiluminescence DNA binding assay, ExsA", "set-up": "species or system P. aeruginosa"}, "SlyA": {"biological_target": "SlyA (Salmonella typhimurium, UniProt P40676)", "sequence (P40676 whole entry)": "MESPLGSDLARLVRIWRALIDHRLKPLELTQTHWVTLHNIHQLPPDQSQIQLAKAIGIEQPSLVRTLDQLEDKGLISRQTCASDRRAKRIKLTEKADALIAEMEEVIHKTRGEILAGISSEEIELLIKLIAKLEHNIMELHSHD", "test": "Chemiluminescence DNA binding assay, SlyA (MarR protein control)", "set-up": "species or system S. typhimurium"}, "LcrF (VirF)": {"biological_target": "LcrF (VirF) (Yersinia pseudotuberculosis, UniProt Q663J0)", "sequence (Q663J0 1-271)": "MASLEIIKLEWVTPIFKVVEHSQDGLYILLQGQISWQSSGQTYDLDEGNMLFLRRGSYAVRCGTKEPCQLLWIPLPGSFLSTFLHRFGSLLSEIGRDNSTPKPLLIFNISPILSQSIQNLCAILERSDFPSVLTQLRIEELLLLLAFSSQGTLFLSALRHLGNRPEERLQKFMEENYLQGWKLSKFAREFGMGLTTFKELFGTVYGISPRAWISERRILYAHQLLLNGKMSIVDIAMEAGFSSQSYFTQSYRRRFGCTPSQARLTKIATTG", "test": "biochemical", "assay_type": "binding, Y. pseudotuberculosis"}, "[1]": {"test": "In vivo toxicity, repeat dose experiments", "conditions": "mice; subcutaneous 25 mg/Kg, two doses on day 1, single dose on days 2-5", "description": "The in vivo toxicity of Mar inhibitors ATB, BAB, BAF, BBP and BBS were investigated in repeat dose experiments. Mice were given two subcutaneous doses (25 mg/Kg) of a Mar inhibitor on day 1 and a single dose of the compound on days 2-5."}, "MarA": {"biological_target": "MarA (Escherichia coli, UniProt P0ACH5)", "sequence (P0ACH5 whole entry)": "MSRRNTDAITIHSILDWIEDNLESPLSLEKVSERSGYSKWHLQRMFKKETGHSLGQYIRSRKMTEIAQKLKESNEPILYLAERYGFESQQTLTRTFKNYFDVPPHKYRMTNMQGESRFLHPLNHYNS", "test": "Chemiluminescence DNA binding assay, MarA", "conditions": "E. coli MarA"}, "PqrA": {"biological_target": "PqrA (Proteus mirabilis, UniProt B4ETM4)", "sequence (B4ETM4 entry or part of it)": "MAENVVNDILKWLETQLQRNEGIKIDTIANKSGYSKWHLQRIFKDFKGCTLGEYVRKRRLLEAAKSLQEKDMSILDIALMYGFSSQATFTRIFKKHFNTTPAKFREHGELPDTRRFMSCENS", "test": "Chemiluminescence DNA binding assay, PqrA", "conditions": "P. mirabilis PqrA"}}}
{"smiles": "O=C(Nc1ccc(-c2nc3ccc([N+](=O)[O-])cc3n2O)cc1)c1cccc(Cl)c1", "note": "[ASX]", "values": [{"measurement": "EC50", "setting": "SoxS", "value": 4.9, "unit": "µM"}, {"measurement": "EC50", "setting": "Rma", "value": 3.5, "unit": "µM"}, {"measurement": "EC50", "setting": "Rob", "value": 3.4, "unit": "µM"}, {"measurement": "EC50", "setting": "ExsA", "value": 2.5, "unit": "µM"}, {"measurement": "EC50", "setting": "SlyA", "value": 21.7, "unit": "µM"}]}
{"smiles": "Cc1ccc(C(=O)Nc2ccc(-c3nc4ccc([N+](=O)[O-])cc4n3O)cc2)cc1", "note": "[ATB]", "values": [{"measurement": "EC50", "setting": "LcrF (VirF)", "value": 15.5, "unit": "µM"}, {"measurement": "EC50", "setting": "SoxS", "value": 2.7, "unit": "µM"}, {"measurement": "EC50", "setting": "Rob", "value": 7.4, "unit": "µM"}, {"measurement": "EC50", "setting": "ExsA", "value": 4, "unit": "µM"}, {"measurement": "in vivo toxicity", "setting": "[1]", "value": "No overt signs of toxicity"}]}
{"smiles": "O=[N+]([O-])c1ccc2nc(-c3ccc(-c4ccccc4)o3)n(O)c2c1", "note": "[ARD]", "values": [{"measurement": "EC50", "setting": "SoxS", "value": 8.3, "unit": "µM"}, {"measurement": "EC50", "setting": "Rma", "value": 17, "unit": "µM"}, {"measurement": "EC50", "setting": "Rob", "value": 28, "unit": "µM"}, {"measurement": "EC50", "setting": "ExsA", "value": 15.6, "unit": "µM"}, {"measurement": "EC50", "setting": "MarA", "value": 11.7, "unit": "µM"}, {"measurement": "EC50", "setting": "SlyA", "value": 11.9, "unit": "µM"}, {"measurement": "EC50", "setting": "PqrA", "value": 13.6, "unit": "µM"}]}
{"smiles": "CN(C)c1ccc(C(=O)Nc2ccc(-c3nc4ccc([N+](=O)[O-])cc4n3O)cc2)cc1", "note": "[ATE]", "values": [{"measurement": "EC50", "setting": "LcrF (VirF)", "value": 36.5, "unit": "µM"}, {"measurement": "EC50", "setting": "SoxS", "value": 0.82, "unit": "µM"}, {"measurement": "EC50", "setting": "Rma", "value": 1.8, "unit": "µM"}, {"measurement": "EC50", "setting": "Rob", "value": 1.3, "unit": "µM"}, {"measurement": "EC50", "setting": "ExsA", "value": 1.9, "unit": "µM"}, {"measurement": "EC50", "setting": "MarA", "value": 1.2, "unit": "µM"}, {"measurement": "EC50", "setting": "SlyA", "value": 14.3, "unit": "µM"}, {"measurement": "EC50", "setting": "PqrA", "value": 1.4, "unit": "µM"}]}
{"smiles": "O=C(Nc1ccc(-c2nc3ccc([N+](=O)[O-])cc3n2O)cc1)c1ccc(F)cc1", "note": "[ASU]", "values": [{"measurement": "EC50", "setting": "LcrF (VirF)", "value": 17.7, "unit": "µM"}, {"measurement": "EC50", "setting": "SoxS", "value": 3, "unit": "µM"}, {"measurement": "EC50", "setting": "Rma", "value": 4.9, "unit": "µM"}, {"measurement": "EC50", "setting": "Rob", "value": 4.7, "unit": "µM"}, {"measurement": "EC50", "setting": "ExsA", "value": 4, "unit": "µM"}, {"measurement": "EC50", "setting": "SlyA", "value": 51, "unit": "µM"}]}
